The source of these data is patent EP0103381B1, “Substituted anthra(1,9-cd)pyrazol-6(2H)-ones” (WARNER-LAMBERT COMPANY, priority 1982, dated 1984).

SMILES strings stand for the structures. Like-named read-outs stand apart in the source and are kept apart here.

In one assay the test system is Aerobacter aerogenes. In words: agar plate paper-disc inhibition zone screening. To be noted: Klebsiella aerogenes, read-out: Inhibition Zone Diameter mm (Dose mg/ml) A. Aerogenes; for zone of inhibition at 500 µg/mL: Dose 0.5 mg/ml; for zone of inhibition at 1000 µg/mL: Dose 1.0 mg/ml; for zone of inhibition at 3000 µg/mL: Dose 3.0 mg/ml. It is filed as cell-based. Put shortly: (§1)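 Read-out: diameter (mm) of the inhibition zone around 12.7 mm paper discs after overnight (18-20 h) incubation at 37°C. Discs carried compound at 3,000-10 mcg/ml in alcohol, DMSO or DMF, final solvent <10%. Seeded agar trays used saline-suspended cells adjusted to 20-35% transmittancy.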

Another assay has as its system Bacillus subtilis. Kind of assay: agar plate paper-disc inhibition zone screening. The assay is classed as cell-based. To be noted: read-out: Inhibition Zone Diameter mm (Dose mg/ml) B. Subtilis; for zone of inhibition at 500 µg/mL: Dose 0.5 mg/ml; for zone of inhibition at 3000 µg/mL: Dose 3.0 mg/ml; for zone of inhibition at 100 µg/mL: Dose 0.1 mg/ml. Put shortly: as §1

The subject of another assay is Escherichia coli. In words: agar plate paper-disc inhibition zone screening. It is filed as cell-based. Particulars: read-out: Inhibition Zone Diameter mm (Dose mg/ml) E. Coli; for zone of inhibition at 1000 µg/mL: Dose 1.0 mg/ml; for zone of inhibition at 3000 µg/mL: Dose 3.0 mg/ml; for zone of inhibition at 500 µg/mL: Dose 0.5 mg/ml. Put shortly: as §1
For the next assay, the system named is Streptococcus faecalis. Kind of assay: agar plate paper-disc inhibition zone screening. The assay is classed as cell-based. Particulars: Enterococcus faecalis, read-out: Inhibition Zone Diameter mm (Dose mg/ml) S. Faecalis; for zone of inhibition at 500 µg/mL: Dose 0.5 mg/ml; for zone of inhibition at 3000 µg/mL: Dose 3.0 mg/ml. Put shortly:
as §1

The subject of another assay is Penicillium avellaneum. In words: agar plate paper-disc inhibition zone screening. It is filed as cell-based. Particulars: Hamigera avellanea, read-out: Inhibition Zone Diameter mm (Dose mg/ml) P. Avellaneum; for zone of inhibition at 3000 µg/mL: Dose 3.0 mg/ml; for zone of inhibition at 1000 µg/mL: Dose 1.0 mg/ml. Put shortly:
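Mycelia and spores from a six-day 28°C agar culture, suspended in saline with 0.05% Tween 80 at 20% transmittancy, were seeded into molten agar trays. Compounds at 3,000, 1,000, 500, 100 and 10 mcg/ml (solvent <10%) were applied on 12.7 mm paper discs. After at least 20-24 h incubation, inhibition zone diameter was measured in mm.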

The test system of assay [1] is lymphocytic leukemia P388. Kind of assay: in vivo lymphocytic leukemia P388 test. On the set-up: species or system mice. To be noted: Mus musculus, P388, ip, 720 h, two single doses four days apart, read-out: T/C × 100 (Percent); for response vs control in vivo at 3.12 mg/kg: P388, Dose 3.12 mg/kg intraperitoneally; for response vs control in vivo at 6.25 mg/kg: P388, Dose 6.25 mg/kg intraperitoneally; for response vs control in vivo at 12.5 mg/kg: P388, Dose 12.5 mg/kg intraperitoneally; for response vs control in vivo at 25 mg/kg: P388, Dose 25 mg/kg intraperitoneally; for response vs control in vivo at 100 mg/kg: P388, Dose 100 mg/kg intraperitoneally; for response vs control in vivo at 1.56 mg/kg: P388, Dose 1.56 mg/kg intraperitoneally. In a few lines:
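Efficacy was judged from the treated/control survival-time ratio over 30 days (T/C×100 >125% as criterion). Mice (CD2F, 6–7/group) received i.p. P388 ascites cells, then compound i.p. at varied doses twice, four days apart.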

In assay [2] the test system is HCT-8 (human colon adenocarcinoma) cells. Kind of assay: in vitro activity against human colon adenocarcinoma (HCT-8), cell count. It is filed as cell-based. Here is the method: HCT-8 (human colon adenocarcinoma) cells are trypsinized using Trypsin-EDTA. A single cell suspension is achieved by passing the cells through a 26 gauge needle with a 20 cc syringe. A cell suspension is prepared using RPMI 1640 growth medium (available from Gibco Laboratories) +10% fetal calf serum +50 µg/ml garamycin with a cell concentration of approximately 30,000 cells/ml. The cell suspension is dispensed in Linbro 24-well plates; 1 ml/well. The plates are incubated for approximately 48 hrs at 37°C in a 5% C02 atmosphere. At this time test compounds are added in the appropriate concentration. Five µl of the 200 µg/ml stock solution is added to each well in a primary test. Ten pl of the appropriate dilution is added to each well for a titration test. The plates are reincubated an additional 60-65 hrs at 37°C in a 5% C02 atmosphere. The test is read by lysing the cells using a mix of cationic surfactant, glacial acetic acid and sodium chloride. […] of the lysed cell suspension from each well is added to 8 ml of diluent. Each sample is read with a Coulter counter (ZBI model). The activity of each sample is measured as a percentage of the controls and the data is reported as ID50, that is the molar quantity of drug required to kill 50% of the tumor cells.

[3] abbreviates: Homo sapiens, HCT-8 cells, 60-65 hrs with compound, molar quantity of drug required to kill 50% of the tumor cells, read-out: ID50 Molar.

Turning to `CN(C)CCNc1ccc2c3c(nn2CCNCCO)-c2ccccc2C(=O)c13` [Example 25, 2-[2-[(2-Hydroxyethyl)amino]ethyl]-5-[[2-(dimethylamino)ethyl]amino]anthra[1,9-cd]pyrazol-6(2H)-one], the zone of inhibition at 500 µg/mL with Aerobacter aerogenes is 16 mm. Besides, in the assay with Bacillus subtilis, the zone of inhibition at 500 µg/mL was found to be 20 mm. Besides, in the assay on Escherichia coli, the zone of inhibition at 1000 µg/mL turned out to be 15 mm. Moreover, the zone of inhibition at 500 µg/mL in the assay with Streptococcus faecalis amounted to 15 mm. Further, the zone of inhibition at 3000 µg/mL in the assay with Penicillium avellaneum came to 0 mm. In assay [1], the response vs control in vivo at 3.12 mg/kg is 158%, the response vs control in vivo at 6.25 mg/kg was determined as 163%, the response vs control in vivo at 12.5 mg/kg stood at 166% and the response vs control in vivo at 25 mg/kg stood at 162%. For the same compound, the IC50 in assay [2] (setting [3]) was 230 nM.

Consider `CCN(CC)CCn1nc2c3c(c(NCCN4CCOCC4)ccc31)C(=O)c1ccccc1-2` [Example 4], for which the zone of inhibition at 1000 µg/mL in the assay with Aerobacter aerogenes was determined as 15 mm; with Bacillus subtilis (Dose 1.0 mg/ml), 25 mm; with Escherichia coli, 14 mm; with Penicillium avellaneum it was 14 mm. Moreover, the zone of inhibition at 500 µg/mL in the assay with Streptococcus faecalis was determined as 14 mm. Further, in assay [1], the response vs control in vivo at 100 mg/kg worked out at 145%. Besides, the response vs control in vivo at 400 mg/kg in assay [1] (P388, Dose 400 mg/kg intraperitoneally) stood at 211%. Further, the IC50 in assay [2] (setting [3]) worked out at 120 nM.

Regarding `CN(C)CCCn1nc2c3c(c(NCCNCCO)ccc31)C(=O)c1c(O)ccc(O)c1-2` [Example 46, 2-[3-(Dimethylamino)propyl]-7,10-dihydroxy-5-[[2-[(2-hydroxyethyl)amino]ethyl]amino]anthra[1,9-cd]pyrazol-6(2H)-one], the zone of inhibition at 3000 µg/mL in the assay on Aerobacter aerogenes is 16 mm; in the assay with Bacillus subtilis, 0 mm; with Escherichia coli it was 0 mm; in the assay on Streptococcus faecalis, 0 mm; in the assay with Penicillium avellaneum, 0 mm. The response vs control in vivo at 6.25 mg/kg in assay [1] turned out to be 185%. Also, the response vs control in vivo at 12.5 mg/kg in assay [1] was found to be 218%. The IC50 in assay [2] (HCT-8 human colon adenocarcinoma cells, 60-65 hrs incubation with compound, Coulter counter cell count as percentage of controls, read-out: ID50 (the source's name)) came out at 92 nM.

Take `NCCn1nc2c3c(c(NCCNCCO)ccc31)C(=O)c1ccccc1-2` [Example 27, 2-(2-Aminoethyl)-5-[[2-[(2-hydroxyethyl)amino]ethyl]amino]anthra[1,9-cd]pyrazol-6(2H)-one]: the zone of inhibition at 100 µg/mL with Aerobacter aerogenes (Dose 0.1 mg/ml) turned out to be 17 mm. Moreover, in the assay with Bacillus subtilis, the zone of inhibition at 3000 µg/mL was 14 mm. The zone of inhibition at 500 µg/mL in the assay on Escherichia coli was found to be 14 mm. Further, the zone of inhibition at 3000 µg/mL in the assay with Streptococcus faecalis was 0 mm. In addition, in the assay with Penicillium avellaneum, the zone of inhibition at 3000 µg/mL came out at 0 mm. Moreover, in assay [1], the response vs control in vivo at 1.56 mg/kg came out at 139%, the response vs control in vivo at 3.12 mg/kg worked out at 149%, the response vs control in vivo at 6.25 mg/kg came out at 158% and the response vs control in vivo at 12.5 mg/kg amounted to 173%. For the same compound, the response vs control in vivo at 25 mg/kg in assay [1] was determined as 187%. The IC50 in assay [2] (setting [3]) was found to be 68 nM.

As to `O=C1c2ccccc2-c2nn(CCNCCO)c3ccc(NCCNCCO)c1c23` [Example 21, 2-[2-[(2-Hydroxyethyl)amino]ethyl]-5-[[2-[(2-hydroxyethyl)amino]ethyl]amino]anthra[1,9-cd]pyrazol-6(2H)-one], the zone of inhibition at 1000 µg/mL in the assay with Aerobacter aerogenes is 14 mm. The zone of inhibition at 500 µg/mL in the assay with Bacillus subtilis was 18 mm. Besides, the zone of inhibition at 3000 µg/mL in the assay on Escherichia coli was found to be 16 mm; in the assay on Streptococcus faecalis, 0 mm; in the assay with Penicillium avellaneum, 0 mm. In assay [1], the response vs control in vivo at 1.56 mg/kg stood at 132%. Moreover, the response vs control in vivo at 6.25 mg/kg in assay [1] is 147%. Further, the response vs control in vivo at 25 mg/kg in assay [1] turned out to be 171%. The response vs control in vivo at 50 mg/kg in assay [1] (P388, Dose 50 mg/kg intraperitoneally) is 199%. In assay [2] (setting [3]), the IC50 came out at 960 nM.

Turning to `CCN(CC)CCNc1ccc2c3c(nn2CCN(CC)CC)-c2c(O)ccc(O)c2C(=O)c13` [Example 29, 2-[2-(Diethylamino)ethyl]-5-[[2-(diethylamino)ethyl]amino]-7,10-dihydroxyanthra[1,9-cd]pyrazol-6(2H)-one], the zone of inhibition at 3000 µg/mL worked out at 0 mm with Aerobacter aerogenes and 16 mm with Penicillium avellaneum. Besides, the zone of inhibition at 500 µg/mL in the assay on Bacillus subtilis, in the assay on Escherichia coli and with Streptococcus faecalis was 14 mm each time. The response vs control in vivo at 25 mg/kg in assay [1] worked out at 140%. In addition, in assay [1], the response vs control in vivo at 100 mg/kg is 180%. Besides, in assay [2] (setting [3]), the IC50 was found to be 640 nM.

For the compound `CCN(CC)CCNc1ccc2c3c(nn2CCNCCO)-c2ccccc2C(=O)c13` [Example 23, 5-[[2-(Diethylamino)ethyl]amino]-2-[2-[(2-hydroxyethyl)amino]ethyl]anthra[1,9-cd]pyrazol-6(2H)-one], the zone of inhibition at 500 µg/mL in the assay with Aerobacter aerogenes came out at 18 mm. In addition, the zone of inhibition at 100 µg/mL in the assay on Bacillus subtilis stood at 14 mm. In the assay with Escherichia coli (Dose 0.1 mg/ml), the zone of inhibition at 100 µg/mL was found to be 14 mm. For the same compound, the zone of inhibition at 500 µg/mL with Streptococcus faecalis stood at 15 mm. Besides, the zone of inhibition at 3000 µg/mL in the assay on Penicillium avellaneum turned out to be 16 mm. In assay [1], the response vs control in vivo at 1.56 mg/kg came out at 138%, the response vs control in vivo at 3.12 mg/kg was determined as 143%, the response vs control in vivo at 6.25 mg/kg was found to be 138% and the response vs control in vivo at 12.5 mg/kg was 150%. Further, the response vs control in vivo at 25 mg/kg in assay [1] came out at 149%. In addition, in assay [2] (setting [3]), the IC50 worked out at 120 nM.

As for `CCN(CC)CCNc1cccc2c1C(=O)c1cccc3c1c-2nn3CCN(CC)CC` [Example 80, 2-[2-(Diethylamino)ethyl]-7-[[2-(diethylamino)ethyi]amino]anthra[1,9-cd]pyrazol-6(2H)-one], the values for the zone of inhibition at 500 µg/mL with Aerobacter aerogenes, in the assay on Escherichia coli and in the assay with Streptococcus faecalis were 16 mm, 14 mm and 15 mm, respectively. For the same compound, the zone of inhibition at 100 µg/mL in the assay with Bacillus subtilis is 19 mm. The zone of inhibition at 1000 µg/mL in the assay on Penicillium avellaneum stood at 16 mm. Besides, the IC50 in assay [2] (setting [3]) was 220 nM.

For the compound `CCN(CC)CCNc1ccc2c3c(nn2CCN(CC)CC)-c2ccccc2C(=O)c13` [Example 1], the zone of inhibition at 500 µg/mL in the assay on Aerobacter aerogenes came out at 19 mm; with Streptococcus faecalis it was 14 mm. In addition, the zone of inhibition at 100 µg/mL with Bacillus subtilis is 15 mm. The zone of inhibition at 1000 µg/mL with Escherichia coli was found to be 15 mm. In addition, the zone of inhibition at 3000 µg/mL in the assay with Penicillium avellaneum came out at 19 mm. Moreover, the IC50 in assay [2] (setting [3]) amounted to 140 nM.
